From patent publication US11008314B2, “Compounds and methods for modulating interleukin-2-inducible t-cell kinase” (CORVUS PHARMACEUTICALS, INC., priority 2016, dated 2021) come the findings set out here.

Each structure is given as a SMILES string. Where only a bound is given, the exact number is not on record here.

Common to all, as to assay type: biochemical
One assay concerns the target BTK (Homo sapiens (Human), UniProt Q06187). Briefly: IC50 against BTK.
Another assay concerns the target ITK (Homo sapiens (Human), UniProt Q08881). Briefly: IC50 against ITK.
The target of another assay is JAK3 (Homo sapiens (Human), UniProt P52333). Briefly: IC50 against JAK3.
The next assay concerns the target TXK (Homo sapiens (Human), UniProt P42681). Briefly: IC50 against TXK. Particulars: for TXK/ITK: ratio of TXK IC50 to ITK IC50.

Sequence of BTK (Q06187 whole entry, species assumed): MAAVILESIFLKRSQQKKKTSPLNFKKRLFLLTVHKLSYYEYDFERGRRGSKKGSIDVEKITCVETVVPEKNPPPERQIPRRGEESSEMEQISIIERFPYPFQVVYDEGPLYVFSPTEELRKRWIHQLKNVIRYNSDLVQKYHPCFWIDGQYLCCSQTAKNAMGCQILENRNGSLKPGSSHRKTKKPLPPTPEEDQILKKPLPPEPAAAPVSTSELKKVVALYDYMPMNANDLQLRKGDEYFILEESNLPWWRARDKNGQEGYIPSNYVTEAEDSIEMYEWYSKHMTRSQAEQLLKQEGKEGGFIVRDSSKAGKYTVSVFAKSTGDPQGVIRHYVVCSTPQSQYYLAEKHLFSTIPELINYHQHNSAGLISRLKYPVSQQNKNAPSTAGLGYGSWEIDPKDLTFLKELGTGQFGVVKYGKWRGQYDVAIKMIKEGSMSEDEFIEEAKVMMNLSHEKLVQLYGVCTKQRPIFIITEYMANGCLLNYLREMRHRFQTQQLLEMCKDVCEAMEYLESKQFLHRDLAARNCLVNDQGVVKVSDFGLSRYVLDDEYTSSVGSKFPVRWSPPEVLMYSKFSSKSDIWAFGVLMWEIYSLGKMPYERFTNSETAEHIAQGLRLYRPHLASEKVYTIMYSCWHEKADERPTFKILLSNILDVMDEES
Sequence of ITK (Q08881 whole entry): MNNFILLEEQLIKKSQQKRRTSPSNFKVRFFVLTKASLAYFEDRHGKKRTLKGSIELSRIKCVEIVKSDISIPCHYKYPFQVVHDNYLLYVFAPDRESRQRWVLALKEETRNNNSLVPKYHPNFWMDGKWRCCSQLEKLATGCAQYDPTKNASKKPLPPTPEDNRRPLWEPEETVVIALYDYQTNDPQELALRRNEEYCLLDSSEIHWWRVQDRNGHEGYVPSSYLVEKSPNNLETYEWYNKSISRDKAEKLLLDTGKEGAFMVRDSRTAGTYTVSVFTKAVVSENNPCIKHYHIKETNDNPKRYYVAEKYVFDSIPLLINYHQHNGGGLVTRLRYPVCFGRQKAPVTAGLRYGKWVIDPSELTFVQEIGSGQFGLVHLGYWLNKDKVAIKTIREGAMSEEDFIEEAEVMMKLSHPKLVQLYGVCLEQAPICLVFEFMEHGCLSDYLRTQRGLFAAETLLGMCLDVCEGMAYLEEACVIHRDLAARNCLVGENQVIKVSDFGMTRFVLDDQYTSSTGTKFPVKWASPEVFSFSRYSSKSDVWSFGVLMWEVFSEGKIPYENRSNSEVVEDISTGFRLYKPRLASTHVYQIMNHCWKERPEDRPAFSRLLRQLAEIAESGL
Sequence of TXK (P42681 whole entry, species assumed): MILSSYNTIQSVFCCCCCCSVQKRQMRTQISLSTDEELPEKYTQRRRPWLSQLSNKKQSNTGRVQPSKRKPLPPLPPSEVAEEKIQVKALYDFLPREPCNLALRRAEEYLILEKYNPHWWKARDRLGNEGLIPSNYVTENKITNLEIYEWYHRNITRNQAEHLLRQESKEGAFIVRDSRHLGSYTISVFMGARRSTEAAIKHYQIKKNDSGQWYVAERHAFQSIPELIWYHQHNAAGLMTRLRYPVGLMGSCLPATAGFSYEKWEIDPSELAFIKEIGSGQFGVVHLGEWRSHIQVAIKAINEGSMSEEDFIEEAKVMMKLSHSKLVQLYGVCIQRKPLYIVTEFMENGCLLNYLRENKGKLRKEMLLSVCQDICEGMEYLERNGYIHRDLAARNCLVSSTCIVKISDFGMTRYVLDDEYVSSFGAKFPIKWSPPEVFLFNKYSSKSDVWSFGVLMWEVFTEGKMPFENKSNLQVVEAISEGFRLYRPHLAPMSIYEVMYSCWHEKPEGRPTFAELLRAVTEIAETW
Sequence of JAK3 (P52333 whole entry, species assumed): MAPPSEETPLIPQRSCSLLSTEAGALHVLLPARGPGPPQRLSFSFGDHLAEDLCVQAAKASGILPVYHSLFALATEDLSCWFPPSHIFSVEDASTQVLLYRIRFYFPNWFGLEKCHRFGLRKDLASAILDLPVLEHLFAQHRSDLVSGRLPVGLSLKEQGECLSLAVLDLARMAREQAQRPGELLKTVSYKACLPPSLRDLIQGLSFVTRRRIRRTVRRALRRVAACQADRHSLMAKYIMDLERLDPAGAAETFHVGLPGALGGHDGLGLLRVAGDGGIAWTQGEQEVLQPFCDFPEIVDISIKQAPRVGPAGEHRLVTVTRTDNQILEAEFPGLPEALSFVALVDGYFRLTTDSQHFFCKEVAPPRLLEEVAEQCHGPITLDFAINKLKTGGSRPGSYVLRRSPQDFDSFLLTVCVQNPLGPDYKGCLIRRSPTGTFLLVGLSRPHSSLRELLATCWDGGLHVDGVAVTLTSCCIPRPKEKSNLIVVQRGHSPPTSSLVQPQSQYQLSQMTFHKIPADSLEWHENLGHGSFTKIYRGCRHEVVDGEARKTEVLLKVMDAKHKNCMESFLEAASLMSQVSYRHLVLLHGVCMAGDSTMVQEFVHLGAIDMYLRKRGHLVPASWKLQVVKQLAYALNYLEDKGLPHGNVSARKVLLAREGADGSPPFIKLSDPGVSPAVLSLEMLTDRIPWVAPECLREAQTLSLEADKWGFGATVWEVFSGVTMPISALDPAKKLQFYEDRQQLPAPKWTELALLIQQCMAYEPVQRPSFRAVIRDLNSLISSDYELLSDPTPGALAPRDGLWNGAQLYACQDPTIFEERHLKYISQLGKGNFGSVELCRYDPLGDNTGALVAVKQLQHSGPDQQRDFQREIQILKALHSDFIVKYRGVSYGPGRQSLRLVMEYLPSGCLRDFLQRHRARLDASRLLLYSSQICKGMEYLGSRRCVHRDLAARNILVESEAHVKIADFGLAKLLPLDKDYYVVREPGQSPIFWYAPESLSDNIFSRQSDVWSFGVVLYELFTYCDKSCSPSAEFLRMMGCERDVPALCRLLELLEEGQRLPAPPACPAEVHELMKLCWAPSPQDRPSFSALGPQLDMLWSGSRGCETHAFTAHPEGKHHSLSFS

`C=CC(=O)N1[C@@H]2CC[C@H]1CN(C(=O)c1cc(Sc3cnc(NC(=O)c4ccsc4)s3)c(C)cc1OC)C2` [Compound 155, N-(5-((5-((1R, 5S)-8-acryloyl-3,8-diazabicyclo[3.2.1]octane-3-carbonyl)-4-methoxy-2-methylphenyl)thio)thiazol-2-yl)thiophene-3-carboxamide]: the IC50 (commonly the concentration that gives 50% inhibition) against BTK was < 10 nM; at ITK it was < 10 nM; on JAK3, 10 to 100 nM; on TXK, < 10 nM. Besides, the TXK/ITK on TXK amounted to 2.73.
For `C=CC(=O)N1CCCN(C(=O)c2cc(Sc3cnc(NC(=O)C4CC4)s3)cc(C)c2C)C[C@H]1C` [Compound 63], the IC50 at BTK is ≥ 10000 nM; at ITK, 100 to 1000 nM; on JAK3, ≥ 10000 nM; against TXK, 1000 to 10000 nM. For the same molecule, the TXK/ITK on TXK turned out to be 61.086.
Take `C=CC(=O)N1CCCN(C(=O)c2cc(Sc3cnc(NC(=O)C4CC4)s3)c(C)cc2OC)C[C@H]1CC` [Compound 111]: the IC50 was 100 to 1000 nM against BTK, < 10 nM against ITK, 1000 to 10000 nM at JAK3 and 100 to 1000 nM on TXK. On TXK, the TXK/ITK came out at 81.1.
For the molecule `C=CC(=O)N1CCN(C(=O)c2cc(Sc3cnc(NC(=O)c4ccncc4)s3)c(C)cc2OC)CC1` [Compound 87], the IC50 against BTK was 100 to 1000 nM; against ITK, < 10 nM; against JAK3, 1000 to 10000 nM; against TXK it was 100 to 1000 nM. Besides, the TXK/ITK at TXK came to 74.161.
With `C=CC(=O)N1CCN(C(=O)c2cc(Sc3cnc(NC(=O)C4CC4)s3)c(C)cc2Cl)C[C@H]1CC` [Compound 99], the IC50 at BTK is 1000 to 10000 nM; against ITK, 10 to 100 nM; on JAK3 it was 100 to 1000 nM; on TXK, 10 to 100 nM. On TXK, the TXK/ITK was 4.279.
For the molecule `C=CC(=O)N1CCCN(C(=O)c2cc(Sc3cnc(NC(=O)C4CCC4)s3)c(C)cc2OC)C[C@H]1C` [Compound 86], the concentration for half-maximal inhibition (IC50) was ≥ 10000 nM at BTK, 10 to 100 nM on ITK, ≥ 10000 nM at JAK3 and 1000 to 10000 nM against TXK. In addition, the TXK/ITK on TXK was found to be 227.64.
For `C=CC(=O)N1CCCN(C(=O)c2cc(Sc3cnc(NC(=O)c4ccsc4)s3)c(C)cc2OC)C[C@H]1C(C)C` [Compound 149, (R)-N-(5-((5-(4-acryloyl-3-isopropyl-1,4-diazepane-l-carbonyl)-4-methoxy-2-methylphenyl)thio)thiazol-2-yl)thiophene-3-carboxamide], the IC50 was 10 to 100 nM at BTK, < 10 nM at ITK, ≥ 10000 nM against JAK3 and 100 to 1000 nM against TXK. Further, the TXK/ITK at TXK is 171.45.
As for `COc1cc(C)c(Sc2cnc(NC(=O)C3CC3)s2)cc1C(=O)N1CCN(C(=O)/C=C/CN(C)C)CC1` [Compound 3], the IC50 against BTK is 1000 to 10000 nM; on ITK, 10 to 100 nM; against JAK3, ≥ 10000 nM; against TXK, 100 to 1000 nM. The TXK/ITK at TXK is listed as 5.162.
In the case of `C=CC(=O)N1CCN(C(=O)c2cc(Sc3cnc(NC(=O)CC)s3)c(C)cc2OC)[C@@H](C)C1` [Compound 51], the concentration for half-maximal inhibition (IC50) at BTK was 100 to 1000 nM; at ITK it was < 10 nM; at JAK3, 1000 to 10000 nM; against TXK, 10 to 100 nM. Besides, the TXK/ITK at TXK is recorded as 14.645.
The corresponding values for `C=CC(=O)N1CCC2(C1)CN(C(=O)c1cc(Sc3cnc(NC(=O)C4CC4)s3)c(C)cc1OC)C2` [Compound 46] are 10 to 100 nM, < 10 nM, 100 to 1000 nM, < 10 nM and 3.4072.
The corresponding values for `COc1cc(C)c(Sc2cnc(NC(=O)C3CC3)s2)cc1C(=O)N1CCCN(C(=O)/C=C/CN(C)C)[C@H](C)C1` [Compound 94] are ≥ 10000 nM, 100 to 1000 nM, ≥ 10000 nM, ≥ 10000 nM and 61.81.
Regarding `C=CC(=O)N1CCN(C(=O)c2cc(Sc3cnc(NC(=O)c4cnsc4)s3)c(C)cc2OC)C[C@H]1CC` [Compound 114], the IC50 against BTK was 100 to 1000 nM; at ITK, < 10 nM; against JAK3, 1000 to 10000 nM; against TXK, 10 to 100 nM. Moreover, the TXK/ITK at TXK came to 30.1.
Turning to `C=CC(=O)N1CCCN(C(=O)c2cc(Sc3cnc(Nc4ncccc4C)s3)c(C)cc2OC)C[C@H]1C` [Compound 136], the IC50 is 10 to 100 nM against BTK, < 10 nM against ITK, 100 to 1000 nM against JAK3 and 10 to 100 nM against TXK. The TXK/ITK on TXK is on record as 42.
Regarding `C=CC(=O)N1CCCN(C(=O)c2cc(Sc3cnc(NC(=O)C4CCN(C)CC4)s3)c(C)cc2OC)CC1` [Compound 37], the IC50 was ≥ 10000 nM at BTK, 100 to 1000 nM on ITK, ≥ 10000 nM against JAK3 and ≥ 10000 nM on TXK. For the same molecule, the TXK/ITK at TXK is given as 46.119.
On to `C=CC(=O)N1CCCN(C(=O)c2cc(Sc3cnc(Nc4ccccn4)s3)c(C)cc2OC)C[C@H]1C` [Compound 103], for which the IC50 at BTK was 100 to 1000 nM; at ITK it was < 10 nM; against JAK3, 100 to 1000 nM; against TXK, 10 to 100 nM. Further, on TXK, the TXK/ITK was 47.6.
As to `C=CC(=O)N1CCN(C(=O)c2cc(Sc3cnc(NC(C)=O)s3)c(C)cc2OC)C(C)(C)C1` [Compound 5], the IC50 against BTK was 10 to 100 nM; at ITK it was < 10 nM; on JAK3, 100 to 1000 nM; against TXK, < 10 nM. In addition, the TXK/ITK at TXK is given as 1.9721.
For `C=CC(=O)N1CC[C@@H](N(C)C(=O)c2cc(Sc3cnc(Nc4ccccn4)s3)c(C)cc2OC)C1` [Compound 154, (R)-N-(1-acryloylpyrrolidin-3-yl)-2-methoxy-N,4-dimethyl-5-((2-(pyridin-2-ylamino)thiazol-5-yl)thio)benzamide], the 50% inhibitory concentration (IC50) at BTK, at ITK, against JAK3 and against TXK was < 10 nM in each case. In addition, on TXK, the TXK/ITK was 1.01.
Consider `C=CC(=O)N1CCN(C(=O)c2cc(Sc3cnc(NC(=O)c4cnn(C)c4)s3)c(C)cc2OC)CC1` [Compound 91], for which the IC50 at BTK is 10 to 100 nM; against ITK, < 10 nM; at JAK3 it was 100 to 1000 nM; on TXK, 10 to 100 nM. At TXK, the TXK/ITK amounted to 20.093.
Regarding `C=CC(=O)N1CCN(C(=O)c2cc(Sc3cnc(NC(=O)c4ccsc4)s3)c(C)cc2OC)[C@@H](C)C1` [Compound 144, (S)-N-(5-((5-(4-acryloyl-2-methylpiperazine-1-carbonyl)-4-methoxy-2-methylphenyl)thio)thiazol-2-yl)thiophene-3-carboxamide], the IC50 at BTK was 10 to 100 nM; against ITK, < 10 nM; at JAK3, 100 to 1000 nM; against TXK, 10 to 100 nM. On TXK, the TXK/ITK is 18.84.
For `C=CC(=O)N1CCN(C(=O)c2cc(Cc3cnc(NC(=O)C4CC4)s3)c(C)cc2OC)CC1` [Compound 65], the IC50 was 10 to 100 nM against BTK, < 10 nM against ITK, 100 to 1000 nM on JAK3 and < 10 nM against TXK. For the same molecule, the TXK/ITK on TXK is given as 0.392.
Consider `C=CC(=O)N1CCN(C(=O)c2cc(Sc3cnc(NC(=O)c4cccc(CN(C)C)c4)s3)c(C)cc2OC)C[C@H]1CC` [Compound 117], for which the IC50 at BTK was 100 to 1000 nM; against ITK, < 10 nM; at JAK3, 1000 to 10000 nM; at TXK, 10 to 100 nM. In addition, the TXK/ITK on TXK worked out at 65.5.
The corresponding values for `C=CC(=O)N1CCN(C(=O)c2cc(Sc3cnc(NC(=O)c4cocn4)s3)c(C)cc2OC)CC1` [Compound 92] are 100 to 1000 nM, < 10 nM, 100 to 1000 nM, 100 to 1000 nM and 19.123.
In the same order, the values of `C=CC(=O)N1CCN(C(=O)c2cc(Sc3cnc(NC(=O)c4cccc(CN(C)C)c4)s3)c(C)cc2OC)CC(F)C1` (stereo not drawn) [Compound 66] are 100 to 1000 nM, < 10 nM, 100 to 1000 nM, 100 to 1000 nM and 70.047.
Turning to `C=CC(=O)N1CCN(C(=O)c2cc(Sc3cnc(NC(=O)c4cccc(CN(C)C)c4)s3)c(C)cc2C)CC1` [Compound 107], the IC50 was 100 to 1000 nM on BTK, < 10 nM against ITK, 100 to 1000 nM at JAK3 and 10 to 100 nM on TXK. For the same molecule, on TXK, the TXK/ITK is recorded as 61.8.
For `C=CC(=O)N1C[C@H]2CC[C@@H](C1)N2C(=O)c1cc(Sc2cnc(NC(=O)c3ccsc3)s2)c(C)cc1OC` [Compound 143, N-(5-((5-((1R,5S)-3-acryloyl-3,8-diazabicyclo[3.2.1]octane-8-carbonyl)-4-methoxy-2-methylphenyl)thio)thiazol-2-yl)thiophene-3-carboxamide], the IC50 at BTK was < 10 nM; against ITK, < 10 nM; against JAK3 it was 10 to 100 nM; against TXK, < 10 nM. Further, the TXK/ITK at TXK is on record as 3.51.
As for `C=CC(=O)N1CCC2(C1)CN(C(=O)c1cc(Sc3cnc(NC(=O)c4ccsc4)s3)c(C)cc1OC)C2` [Compound 145, N-(5-((5-(6-acryloyl-2,6-diazaspiro[3.4]octane-2-carbonyl)-4-methoxy-2-methylphenyl)thio)thiazol-2-yl)thiophene-3-carboxamide], the IC50 was < 10 nM against BTK, < 10 nM on ITK, 10 to 100 nM on JAK3 and < 10 nM against TXK. For the same molecule, the TXK/ITK on TXK was found to be 3.86.
As for `C=CC(=O)N1CCN(C(=O)c2cc(Sc3cnc(NC(=O)c4cccc(CN(C)C)c4)s3)c(C)cc2OC)CC1` [Compound 14], the IC50 against BTK is 100 to 1000 nM; at ITK, < 10 nM; against JAK3, 1000 to 10000 nM; against TXK it was 100 to 1000 nM. Also, the TXK/ITK at TXK is given as 79.163.
